# Data published in US20260355079A1, “Oral Care Compositions Comprising Hops Beta Acids And Fluoride Ions” (priority 2019, published 2026).
# Tested on: 3-day biofilm (plaque biofilm)
# Test: in vitro plaque glycolysis model (iPGRM): acid production and acid (glycolysis) inhibition
# Format: cell-based, plaque microorganisms from pooled human saliva
# Conditions: TABLE 2; 2 min treatment, slurry in water (1:5)
# Procedure: Acid Production and Acid Inhibition [%]
# Acid production and acid inhibition were determined with the in vitro plaque glycolysis model (iPGRM). The purpose of this technique is to provide a simple and quick method for determining if compounds have an influence on the metabolic pathways that plaque microorganisms utilize to produce toxins that adversely affect gingival health.
# The in vitro plaque glycolysis model (iPGRM) is a technique in which plaque is grown from human saliva and treated with various agents to determine anti-glycolytic activity of treatments. When bacteria convert sugar into energy with the help of enzymes, acids are formed. These acids demineralize and damage the dental enamel. The purpose of this technique is to provide a simple and quick method for determining if treatment compounds have an inhibitory effect on the metabolic pathways that plaque microorganisms utilize for the production of acids or toxins and/or inhibit their growth. […]
# […] The pH of the media solutions was then measured to determine the amount of glycolysis inhibition relative to a negative control.
# On Day 1, new glass rods (5 mm×90 mm) were polished approximately 25 mm from the un-tapered end on a lathe with silicon carbide paper of 240, 320, 400, and 600 grit used sequentially. […] After polishing, rods were stored until ready to run test. […]
smiles,measurement,value
[H]/N=C(\N/C(=N/[H])NCCCCCCNC(=N)NC(=N)Nc1ccc(Cl)cc1)Nc1ccc(Cl)cc1 [Chlorhexidine],"Acid Production (ΔpH), Mean",0.30
